We go through 1 compound from patent US5626867A, “Liposomes with a negative excess charge” (Max-Planck Gesellschaft zur Forderung der Wissenschaften …, priority 1992, dated 1997).

A short description of series [1]: in vivo. Also on record: species or system NMR-I mice. The settings on record: mouse, iv, 5.7 mg/kg. The procedure: Each treatment group was composed of 3 animals. […] The plasma samples were analyzed by the procedure of Mross et al., (J. Chromatograph. 530 (1990), 192-199). […] The columns were dried for 10 minutes at 10 mbar. […] The residue was taken up in 50 μl (0.02 mol/l Na phosphate/acetonitrile, pH 3.9; 7:3, v/v) and analyzed by means of HPLC using a 4.6 mm×25 cm Merck Lichrocart C 18 RP 5 μm column. The flow rate was 1.5 ml/min. The excitation wavelength was 480 nm and the emission wavelength was 580 nm.

The nature of series [2]: in vivo. Particulars: mouse, iv, 5.7 mg/kg. Here is the method:
Female NMR-I mice (28-32 g, 6-8 weeks) were obtained from the Animal Breeding Institute, Hannover Germany. The same doses (5.7 mg/kg) were injected in each case into the cordal vein of the mice. Each treatment group was composed of 3 animals. After 1, 24 and 72 hours the mice were anaesthetized with CO2. Blood was collected from the mice by puncture of the heart and stored in heparinized Eppendorf vessels. Tissue samples from the mice (liver, heart etc.) were rinsed in 0.9% NaCl solution and stored at -70° C.
In order to detect doxorubicin and its metabolites in the individual organs, the tissue samples (about 200 mg in each case) were homogenized with a micro-dismembrator (Braun Melsungen AG, Germany). Doxorubicin and its metabolites were treated with an extraction solution at pH 3 (16.5% w/v AgNO3 in acetonitrile/water; 6:4, v/v), in order to release the anthracyclines from a complex with DNA and to precipitate the proteins. After addition of an internal standard (epirubicin) and centrifugation, the supernatant was applied directly to the HPLC column.

For series [3] the following is noted: clinical use; cited from earlier work.

In the case of `COc1cccc2c1C(=O)c1c(O)c3c(c(O)c1C2=O)C[C@@](O)(C(=O)CO)C[C@@H]3O[C@H]1C[C@H](N)[C@H](O)[C@H](C)O1` [free doxorubicin, doxorubicin], in the series “in vivo [1]”, the concentration at 1 h was 500 ng/mL. Moreover, the amount remaining at 1 h in the series “in vivo [2]” is 23%. Besides, the cardiac toxicity result in series [3] is recorded as “high cardiac toxicity”.

The term fraction remaining denotes the share of the starting amount still present when the sample was taken.
